Test results: paper PMC11153573, “Structural basis for expanded substrate specificities of human long chain acyl-CoA dehydrogenase and related acyl-CoA dehydrogenases” (Scientific Reports, 2024)
Positions count from the first letter of the chain named.

Tests used:
[1] = molecular target: T1, human long-chain acyl-CoA dehydrogenase (LCAD) (Homo sapiens, UniProt P28330); assay: ferricenium reduction assay, spectrophotometric; assay type: biochemical; settings: ferricenium as terminal electron acceptor
T1 construct: gene ACADL; 400-residue mature protein without 30-residue mitochondrial transport peptide; pET11a-LCAD in E. coli BL21(DE3); no tag mentioned; 43 kDa subunit, homotetramer; numbering of the 430-residue preprotein
T1 sequence (P28330 31-430): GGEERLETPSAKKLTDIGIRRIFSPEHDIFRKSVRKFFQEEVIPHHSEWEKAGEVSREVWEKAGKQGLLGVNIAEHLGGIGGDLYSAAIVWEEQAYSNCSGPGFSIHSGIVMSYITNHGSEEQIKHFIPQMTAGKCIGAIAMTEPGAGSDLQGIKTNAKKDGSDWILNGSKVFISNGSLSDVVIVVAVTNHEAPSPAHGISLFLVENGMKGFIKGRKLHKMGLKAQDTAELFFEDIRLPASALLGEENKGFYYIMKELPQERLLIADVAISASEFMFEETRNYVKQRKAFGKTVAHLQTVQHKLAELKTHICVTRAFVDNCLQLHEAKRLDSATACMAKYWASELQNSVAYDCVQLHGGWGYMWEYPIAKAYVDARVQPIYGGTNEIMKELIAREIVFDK

[2] = molecular target: T2, human long-chain acyl-CoA dehydrogenase (LCAD) (Homo sapiens, UniProt P28330, E291Q); assay: X-ray crystallography, […] Å, co-crystallized with C12-CoA; assay type: binding; settings: noncovalent, one FAD per subunit; pH 8.2-8.5
T2 construct: gene ACADL; 400-residue mature protein without 30-residue mitochondrial transport peptide; pET11a-LCAD in E. coli BL21(DE3); no tag mentioned; 43 kDa subunit, homotetramer; numbering of the 430-residue preprotein
T2 sequence (P28330 31-430 E291Q): T1 sequence (P28330 31-430) with E261Q

[3] = molecular target: T1, human long-chain acyl-CoA dehydrogenase (LCAD); assay: X-ray crystallography, […] Å; assay type: binding; settings: noncovalent, one FAD per subunit, at dimer interface; no substrate ligand; pH 8.2-8.5
[4] = molecular target: T1, human long-chain acyl-CoA dehydrogenase (LCAD); assay: X-ray crystallography, […] Å, soaked crystal; assay type: binding; settings: active site; inhibitor; bound in monomers A and B only; 0.1% beta-octyl glucoside, pH 8.2-8.5

CCCCCCCCCCCC(=O)SCCNC(=O)CCNC(=O)[C@H](O)C(C)(C)COP(=O)(O)OP(=O)(O)OC[C@H]1O[C@@H](n2cnc3c(N)ncnc32)[C@H](O)[C@@H]1OP(=O)(O)O [C12-CoA]
ferricenium reduction assay, spectrophotometric [1]: The reaction was initiated by addition of C12-CoA substrate

Cc1cc2nc3c(=O)[nH]c(=O)nc-3n(C[C@H](O)[C@H](O)[C@H](O)COP(=O)(O)OP(=O)(O)OC[C@H]3O[C@@H](n4cnc5c(N)ncnc54)[C@H](O)[C@@H]3O)c2cc1C [FAD]
X-ray crystallography, 2.0 Å, co-crystallized with C12-CoA [2]: FAD, Gly412, and the catalytic residue (E291Q) are shown as sticks
X-ray crystallography, 2.5 Å [3]: The strong electron density map in the FAD position indicated the correctness of the solution

CC(=O)CC(=O)SCCNC(=O)CCNC(=O)[C@H](O)C(C)(C)COP(=O)(O)OP(=O)(O)OC[C@H]1O[C@@H](n2cnc3c(N)ncnc32)[C@H](O)[C@@H]1OP(=O)(O)O [acetoacetyl-CoA]
X-ray crystallography, 2.8 Å, soaked crystal [4]: the inhibitor acetoacetyl-CoA can be soaked into the crystals
